# Patent US20260284011A1, “COMPOUNDS FOR RESTORING SUSCEPTIBILITY TO BETA-LACTAM ANTIBIOTICS” (UNIVERSITY OF NOTRE DAME DU LAC, priority 2023, published 2026)
# How the values were obtained:
# S. aureus = test: Potentiation of β-lactams by cyclic boronate β-lactamase inhibitors; assay type: cell-based, Staphylococcus aureus
# NRS144 strain = test: MIC of the inducer CBAP; assay type: cell-based, Staphylococcus aureus
# [1] = tested on: modified bla operons (pCN52RI, pCN52RI-venus, pCN52RI-mCherry); test: Induction of fluorescent reporters of the bla operon by CBAP; assay type: cell-based, S. aureus NRS144
# Source text: FIG. 4. Comparison of the fluorescence intensity produced by S. aureus NRS144 strains harboring pCN52RI, pCN52RI-venus and pCN52RI-mCherry. Each fluorescent protein was induced by the β-lactam antibiotic CBAP. The ratios of fluorescence in the presence of CBAP to that in the absence of it were 3, 10 and 5 for GFP, Venus, and mCherry, respectively. Data were derived from four independent assays.
# (§1) Live-Cell Fluorescent Assay in Discovery and Mechanism of Action. We conceived of fluorescent constructs in the bla operon, for the purpose of screening (FIG. 2a). We removed the gene for the β-lactamase (blaZ) and put in its place individually the genes for the Green Fluorescent Protein (GFP), Venus (a yellow-fluorescent protein) or mCherry (a red-fluorescent protein) in the template plasmid pCN52. The three plasmids were named pCN52RI, pCN52RI-Venus and pCN52RI-mCherry, respectively. The genes for the fluorescent proteins were transcribed under the promoter of the blaZ gene and were regulated by the proteins BlaR and BlaI, as is the case for the wild-type bla operon.
# (§2) We transformed separately S. aureus NRS144—a laboratory strain that accepts a foreign gene and harbors neither the bla nor the mec operons—with each of these plasmids. […] When induced, the fluorescent protein is produced and is detected (akin to expression of the resistance genes blaZ or mecA in typical MSSA and MRSA). […] The transformed strains were grown in tryptic soy broth medium for overnight culture and strain maintenance and incubated in cation-adjusted Mueller-Hinton broth medium for inhibitor screening in a 96-well microplate format. The culture without CBAP addition was the negative control. In order to select a desirable reporter construct, we compared the intensity of the fluorescence produced from each construct at the wavelengths given in FIG. 2a using the Cytation-5 multi-mode microplate reader. Among the three constructs, pCN52RI-Venus produced the best fluorescence intensity and pCN52RI-mCherry was the second best (FIG. 4).
# Construction of the fluorescent-reporter systems. […]
# BlaR = BlaR (Staphylococcus aureus, UniProt P18357); test: Live-cell fluorescent assay for BlaR inhibition (Venus reporter); assay type: cell-based, S. aureus NRS144pCN52RI-Venus; settings: compound at 100 mg/L^−1; CBAP 10 mg·L^−1; fluorescence after 2 h
# Source text: as §1, §2
# (§3) The collection of the 100 compounds from the in-silico search was screened against S. aureus NRS144pCN52RI-Venus. The screening strategy was as follows. Bacteria grown to OD600 of 0.25 were exposed concurrently to CBAP (10 mg·L^−1) and the test compound (100 mg·L^−1). Fluorescence was recorded after two hours of incubation. OD600 values were also recorded to identify compounds with inherent antibacterial activity. Compound 1 (Chart 1) emerged—82% diminished fluorescence as an indication of the extent of BlaR inhibition—as a suitable template for structure elaboration. This effort led to the synthesis of several dozen benzimidazole and imidazole compounds. The progression of the iterative design is depicted in Chart 1 for four compounds, culminating in 4. […] The X-ray structures for the complexes of compounds 2 (non-covalent) and 4 (covalent) with the BlaR sensor domain are shown respectively in FIG. 2b (2.0 Å resolution) and FIG. 2c (1.97 Å resolution). Compound 4 makes a covalent bond with the catalytic Ser389 and creates a network of hydrogen bonds with the BlaR active site (FIG. 2c).
# (§4) Fluorescent assay for screening of BlaR potential inhibitors. A 3-mL portion of lysogeny broth (LB) medium was inoculated with NRS144pCN52RI Venus from frozen stocks and grown overnight at 37° C. The overnight culture was then diluted 1:150 fold with fresh LB containing […] of erythromycin and incubated at 37° C. to an OD600 of 0.3, at which point fluorescence was induced by the addition of CBAP to a final concentration of 10 μg·mL^−1. The culture was aliquoted (99 L) into 96-well plate and 1 L of inhibitor solution (1 mg·mL^−1 in DMSO) was added to each well. Negative control (DMSO without CBAP) and positive control (CBAP without inhibitor) were included. The plate was incubated at 30° C. for 2 h with intermittent shaking. Fluorescence and OD600 measurements were taken by a Cytation-5 multimode microplate reader. Percent inhibition of BlaR and bacterial growth were calculated using absorbance unit (AU) and OD600 values of each sample entered into this formula: […]
# [2] = tested on: S. aureus NRS144pCN52RI-Venus; test: Bacterial growth inhibition (OD600) in the fluorescent screening assay; assay type: cell-based, Staphylococcus aureus; settings: compound at 100 mg/L^−1; OD600 after 2 h
# Method: as §3, §4
# BlaR, sequence (P18357 whole entry): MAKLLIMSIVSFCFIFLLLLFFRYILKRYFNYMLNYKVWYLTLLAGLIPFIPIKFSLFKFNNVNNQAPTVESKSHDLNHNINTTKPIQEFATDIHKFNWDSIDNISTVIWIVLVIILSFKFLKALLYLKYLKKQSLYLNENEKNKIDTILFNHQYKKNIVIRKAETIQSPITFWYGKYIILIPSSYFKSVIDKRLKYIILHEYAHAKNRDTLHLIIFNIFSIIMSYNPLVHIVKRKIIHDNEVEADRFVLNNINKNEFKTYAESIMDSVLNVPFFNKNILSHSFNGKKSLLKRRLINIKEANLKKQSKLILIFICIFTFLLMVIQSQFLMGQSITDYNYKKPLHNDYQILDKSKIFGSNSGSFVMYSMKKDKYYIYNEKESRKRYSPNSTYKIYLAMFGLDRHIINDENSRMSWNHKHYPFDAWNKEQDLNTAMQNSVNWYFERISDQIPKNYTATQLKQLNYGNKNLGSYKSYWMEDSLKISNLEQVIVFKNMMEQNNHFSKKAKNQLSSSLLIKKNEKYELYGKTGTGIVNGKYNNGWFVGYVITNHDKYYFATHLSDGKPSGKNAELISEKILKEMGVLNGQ
Compound,% Inhibition of BlaR (BlaR) [%],% Inhibition of bacterial growth [2] [%],also measured
NCCN[C@H]1CC[C@H](CC(=O)N[C@H]2Cc3cccc(C(=O)O)c3OB2O)CC1 [taniborbactam],,,"potentiation of the anti-S. aureus activities of MEM, OXA, FOX and CPT (S. aureus): no activity"
O=C(O)C[C@@H]1CC[C@H](NC(=O)Cc2cccs2)B(O)O1 [vaborbactam],,,"potentiation of the anti-S. aureus activities of MEM, OXA, FOX and CPT (S. aureus): no activity"
2-(2-carboxyphenyl)-benzoyl-6-aminopenicillanic acid [CBAP],,,minimal-inhibitory concentration (MIC) (NRS144 strain): 64 µg/mL; ratio of fluorescence in the presence of CBAP to that in the absence ([1]; GFP (pCN52RI)): 3; ratio of fluorescence in the presence of CBAP to that in the absence ([1]; Venus (pCN52RI-venus)): 10; ratio of fluorescence in the presence of CBAP to that in the absence ([1]; mCherry (pCN52RI-mCherry)): 5
CC(C)(C)OC(=O)NCc1cn(Cc2ccc(C(F)(F)F)cc2C(F)(F)F)c(S(=O)(=O)O)n1 [Compound 64],75,40,
O=S(=O)(O)c1nc2ccccc2n1Cc1ccccc1C(F)(F)F [Compound 13],69,0,
O=C(/C=C/c1ccc(Cl)cc1Cl)NCc1ccc2nc(S)n(Cc3ccc(C(F)(F)F)cc3C(F)(F)F)c2c1 [Compound 25],75,50,
OCC1NC(=S)N(Cc2ccc(C(F)(F)F)cc2C(F)(F)F)N1 (centres unmarked) [Compound 77],71,30,
COC(=O)c1ccc2nc(S(=O)(=O)O)n(Cc3ccc(C(F)(F)F)cc3C(F)(F)F)c2c1 [Compound 16],20,0,
CC(=O)NCc1ccc2nc(S)n(Cc3ccc(C(F)(F)F)cc3C(F)(F)F)c2c1,70,0,
O=C(O)c1cn(Cc2ccc(C(F)(F)F)cc2C(F)(F)F)c(S(=O)(=O)O)n1 [Compound 72],11,0,
N#Cc1cn(Cc2ccc(C(F)(F)F)cc2C(F)(F)F)cn1 [Compound 55],0,0,
C[N+]12CC(=O)O[B-]1(CSc1nc3ccc(C#N)cc3n1Cc1ccc(C(F)(F)F)cc1C(F)(F)F)OC(=O)C2 (centres unmarked) [Compound 32],93,20,
O=S(=O)(O)c1nc2ccc(CO)cc2n1Cc1ccc(C(F)(F)F)cc1C(F)(F)F [Compound 18],97,0,
OC[C@@H](O)[C@H](O)[C@H](O)c1cn(Cc2ccccc2)c(=S)[nH]1,13,0,
O=C(/C=C/c1ccc(F)cc1)NCc1ccc2nc(S)n(Cc3ccc(C(F)(F)F)cc3C(F)(F)F)c2c1 [Compound 23],76,70,
COC(=O)c1ccc2nc(SC[B-]34OC(=O)C[N+]3(C)CC(=O)O4)n(Cc3ccc(C(F)(F)F)cc3C(F)(F)F)c2c1 (centres unmarked) [Compound 35],98,33,
N#CCCSc1nc2ccc(C#N)cc2n1Cc1ccc(C(F)(F)F)cc1C(F)(F)F [Compound 36],90,40,
NCc1cn(Cc2ccc(C(F)(F)F)cc2C(F)(F)F)c(S(=O)(=O)O)n1 [Compound 63],50,18,
O=C(CCc1ccc(F)cc1)NCc1ccc2nc(S)n(Cc3ccc(C(F)(F)F)cc3C(F)(F)F)c2c1 [Compound 29],59,0,
